{"source": "paper PMC12075751", "about": "(Nature Communications, 2025)", "molecules": {"B1": {"name": "FABP4: recombinant FABP4 protein (MCE, cat#HY-P70293) (protein, UniProt P04117 2-132, looked up)", "Fatty acid-binding protein, …": "CDAFVGTWKLVSSENFDDYMKEVGVGFATRKVAGMAKPNMIISVNGDLVTIRSESTFKNTEISFKLGVEFDEITADDRKVKSIITLDGGALVQVQKWDGKSTTIKRKRDGDKLVVECVMKGVTSTRVYERA"}}, "key": {"FABP4 [1]": {"tested_on": "FABP4", "test": "ELISA of serum FABP4, OVX mice, oral gavage study", "assay_type": "in vivo, mouse", "conditions": "28 days daily oral gavage, ALD […], BMS 10 mg/kg"}, "PINP": {"tested_on": "PINP", "test": "ELISA of serum PINP, OVX mice, oral gavage study", "assay_type": "in vivo, mouse", "conditions": "vs Model"}, "CTX-1": {"tested_on": "CTX-1", "test": "ELISA of serum CTX-1, OVX mice, oral gavage study", "assay_type": "in vivo, mouse"}, "OVX mice [2]": {"tested_on": "OVX mice", "test": "H&E staining of bone marrow adipose tissue, OVX mice, oral gavage study", "assay_type": "in vivo, mouse", "conditions": "BMS vs ALD"}, "FABP4 [3]": {"tested_on": "FABP4", "test": "IHC of FABP4 in tibial bone marrow, OVX mice, oral gavage study", "assay_type": "in vivo, mouse", "conditions": "BMS vs ALD"}, "human BMSCs": {"tested_on": "human BMSCs", "test": "Osteoblastic differentiation of BMSCs, Alizarin Red staining", "assay_type": "cell-based", "conditions": "FABP4 25 or 50 ng/mL, with BMS 5 or 10 μM, 21-day induction"}, "TRAP, c-Fos, NFATc1": {"tested_on": "TRAP, c-Fos, NFATc1", "test": "Western Blotting of OCs differentiation marker proteins", "assay_type": "cell-based, mouse", "conditions": "OCs + BMS"}, "OVX mice [4]": {"tested_on": "OVX mice", "assay_type": "in vivo, mouse"}, "OVX mice [5]": {"tested_on": "OVX mice", "assay_type": "in vivo, mouse", "conditions": "BMS 10 mg/kg oral"}, "OVX mice [6]": {"tested_on": "OVX mice", "assay_type": "in vivo, mouse", "conditions": "BMS 10 mg/kg oral", "remark": "listed apart in the source"}, "OVX mice [7]": {"tested_on": "OVX mice", "test": "Three-point bending test on femoral midshaft, OVX mice, oral gavage study", "assay_type": "in vivo, mouse", "conditions": "oral administration of BMS"}, "PK analysis in SD rats": {"test": "PK analysis in SD rats", "assay_type": "in vivo, rat"}, "BMMs": {"tested_on": "BMMs", "test": "OCs formation from BMMs", "assay_type": "cell-based, mouse", "conditions": "25 ng/mL FABP4 during RANKL induction of BMMs"}, "OCs [8]": {"tested_on": "OCs", "test": "Bone resorption activity of mature OCs on bovine bone slices", "assay_type": "cell-based, mouse", "conditions": "SEM"}, "OCs [9]": {"tested_on": "OCs", "test": "F-actin staining of OCs", "assay_type": "cell-based, mouse", "conditions": "vs group with only RANKL and M-CSF"}, "[10]": {"tested_on": "intracellular Ca2+ in OCs", "test": "Ca2+ concentration detection in OCs", "assay_type": "cell-based, mouse", "conditions": "OCs + FABP4 (25 ng/mL)"}, "[11]": {"conditions": "OVX mice, BMS 10 mg/kg oral, 28 days"}}}
{"molecule": "NCCCC(O)(P(=O)(O)O)P(=O)(O)O", "note": "[ALD, alendronate sodium]", "values": [{"measurement": "serum FABP4 levels vs Model group", "setting": "FABP4 [1]", "result": "significantly reduced"}, {"measurement": "bone formation (serum PINP)", "setting": "PINP", "result": "little effect"}, {"measurement": "bone resorption (serum CTX-1)", "setting": "CTX-1", "result": "reduced"}, {"measurement": "bone marrow fat tissue (H&E staining)", "setting": "OVX mice [2]", "result": "no significant difference"}, {"measurement": "FABP4 protein expression in bone marrow (IHC)", "setting": "FABP4 [3]", "result": "no significant difference"}]}
{"molecule": "CCc1c(-c2ccccc2)c(-c2ccccc2)nn1-c1ccccc1-c1cccc(OCC(=O)O)c1", "note": "[BMS309403]", "values": [{"measurement": "osteogenic differentiation capacity of BMSCs (Alizarin Red staining)", "setting": "human BMSCs", "result": "neither the FABP4 protein nor its inhibitor affected"}, {"measurement": "TRAP, c-Fos, and NFATc1 protein levels", "setting": "TRAP, c-Fos, NFATc1", "result": "suppression"}, {"measurement": "bone resorption (serum CTX-1)", "setting": "CTX-1", "result": "reduced"}, {"measurement": "efficacy in femur compared to ALD", "setting": "OVX mice [4]; BMS 10 mg/kg, 7.7 times the ALD dose ([…]), oral", "result": "did not achieve the same efficacy"}, {"measurement": "femoral BMD", "setting": "OVX mice [4]; [11]", "result": "increased"}, {"measurement": "trabecular thickness (Tb.Th), distal femur", "setting": "OVX mice [4]; [11]", "result": "increased"}, {"measurement": "trabecular number (Tb.N), distal femur", "setting": "OVX mice [4]; OVX mice, BMS 10 mg/kg oral, 28 days, listed as BMS", "result": "increased"}, {"measurement": "BMD, L5 lumbar vertebra", "setting": "OVX mice [5]", "result": "significantly improving"}, {"measurement": "Tb.N, L5 lumbar vertebra", "setting": "OVX mice [5]", "result": "significantly improving"}, {"measurement": "Tb.Th, L5 lumbar vertebra", "setting": "OVX mice [5]", "result": "significantly improving"}, {"measurement": "bone volume/total volume (BV/TV), L5 lumbar vertebra", "setting": "OVX mice [5]", "result": "significantly improving"}, {"measurement": "trabecular separation (Tb.Sp), L5 lumbar vertebra", "setting": "OVX mice [5]", "result": "significantly improving"}, {"measurement": "bone resorption in vivo (TRAP staining of tibia sections)", "setting": "OVX mice [6]", "result": "inhibitory effect"}, {"measurement": "bone stiffness, femoral midshaft", "setting": "OVX mice [7]", "result": "improved"}, {"measurement": "elastic modulus, femoral midshaft", "setting": "OVX mice [7]", "result": "improved"}, {"measurement": "Cl", "setting": "PK analysis in SD rats; IV 2.0 mg/kg, G1-Mean (n = 3)", "result": 11.523, "unit": "mL/min/kg"}, {"measurement": "MRT(0-∞)", "setting": "PK analysis in SD rats; IV 2.0 mg/kg, G1-Mean (n = 3)", "result": 0.84, "unit": "h"}, {"measurement": "Vz", "setting": "PK analysis in SD rats; IV 2.0 mg/kg, G1-Mean (n = 3)", "result": 1.73416, "unit": "L/kg"}, {"measurement": "Cmax", "setting": "PK analysis in SD rats; IV 2.0 mg/kg, G1-Mean (n = 3), listed as BMS, 2 mg/kg", "result": 7094.95, "unit": "ng/mL"}, {"measurement": "AUC(0-t)", "setting": "PK analysis in SD rats; PO 10.0 mg/kg, G2-Mean (n = 3)", "result": 5527.36, "unit": "ng·h/mL"}, {"measurement": "T1/2", "setting": "PK analysis in SD rats; PO 10.0 mg/kg, G2-Mean (n = 3), listed as BMS, 10 mg/kg", "result": 3.16, "unit": "h"}]}
{"molecule": "B1", "values": [{"measurement": "osteogenic differentiation capacity of BMSCs (Alizarin Red staining)", "setting": "human BMSCs", "result": "neither the FABP4 protein nor its inhibitor affected"}, {"measurement": "formation of OCs (TRAP staining)", "setting": "BMMs", "result": "significantly promoted the formation of OCs"}, {"measurement": "bone resorption by mature OCs on bovine bone slices", "setting": "OCs [8]", "result": "enhanced bone resorption"}, {"measurement": "F-actin / bone skeleton structure of OCs", "setting": "OCs [9]", "result": "more regular and distinct bone skeleton structure with abundant F-actin"}, {"measurement": "intracellular calcium levels in OCs", "setting": "[10]", "result": "significant increase"}]}
